In US20090018134A1, “Compounds - 945” (AstraZeneca AB, priority 2007, published 2009) one finds IC50 data, which are given here for 26 compounds.

The target in the assay is T1, mTOR (Homo sapiens, UniProt P42345).
T1 construct: FLAG; made in house
T1 sequence (P42345 1362-2549): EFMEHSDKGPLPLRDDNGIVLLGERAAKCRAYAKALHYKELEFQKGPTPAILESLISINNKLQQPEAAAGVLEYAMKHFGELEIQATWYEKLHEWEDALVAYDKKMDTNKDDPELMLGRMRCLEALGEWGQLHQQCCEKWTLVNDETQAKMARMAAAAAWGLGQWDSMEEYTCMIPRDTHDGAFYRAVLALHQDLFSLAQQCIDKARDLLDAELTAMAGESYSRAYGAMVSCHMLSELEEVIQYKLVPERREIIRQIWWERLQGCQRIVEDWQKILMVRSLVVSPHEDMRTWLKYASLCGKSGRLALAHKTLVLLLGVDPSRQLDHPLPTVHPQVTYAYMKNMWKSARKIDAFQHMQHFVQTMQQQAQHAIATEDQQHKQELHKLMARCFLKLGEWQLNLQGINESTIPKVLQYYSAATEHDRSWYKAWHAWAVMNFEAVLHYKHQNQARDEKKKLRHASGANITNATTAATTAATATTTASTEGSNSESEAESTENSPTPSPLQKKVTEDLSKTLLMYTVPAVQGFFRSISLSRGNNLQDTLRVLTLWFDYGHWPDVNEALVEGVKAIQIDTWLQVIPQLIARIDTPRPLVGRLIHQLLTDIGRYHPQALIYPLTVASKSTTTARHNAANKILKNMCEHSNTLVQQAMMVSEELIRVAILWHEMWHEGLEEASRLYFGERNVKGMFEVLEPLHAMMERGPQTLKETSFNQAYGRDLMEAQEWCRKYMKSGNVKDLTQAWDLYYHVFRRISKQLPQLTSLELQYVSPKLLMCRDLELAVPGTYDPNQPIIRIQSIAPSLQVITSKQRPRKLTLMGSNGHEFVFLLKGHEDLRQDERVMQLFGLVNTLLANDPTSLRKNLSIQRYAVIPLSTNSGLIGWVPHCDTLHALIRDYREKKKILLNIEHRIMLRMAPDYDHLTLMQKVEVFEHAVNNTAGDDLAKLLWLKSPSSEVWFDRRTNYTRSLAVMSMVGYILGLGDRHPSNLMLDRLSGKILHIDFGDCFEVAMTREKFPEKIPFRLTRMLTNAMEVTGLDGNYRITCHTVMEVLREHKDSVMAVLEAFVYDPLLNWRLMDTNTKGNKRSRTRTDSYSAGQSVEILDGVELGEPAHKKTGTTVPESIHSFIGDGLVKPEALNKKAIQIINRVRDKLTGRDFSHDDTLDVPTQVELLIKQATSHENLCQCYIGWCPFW
Description: In Vitro mTOR Kinase Assay (Echo), Test (a)(ii). The class given is biochemical. Conditions: table of enzyme assay Test (a)(ii); read-out: Test (a)(ii) IC50. The method in brief:
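FLAG-tagged human mTOR truncation (residues 1362-2549) expressed in HEK293 cells and FLAG-purified. Compounds dispensed acoustically, reaction 2 h at room temperature, stopped with EDTA. Phosphorylation of biotinylated peptide detected by AlphaScreen with anti-p70 S6K (T389) antibody overnight; IC50 reported.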
For orientation: IC50 means the concentration that inhibits the measured activity by half. Take `Cc1nn(C(F)F)c(C)c1S(=O)(=O)C1(c2cc(N3CCOC[C@@H]3C)nc(-c3ccc(NC(=O)NC4CC4)cc3)n2)CC1` [Example 75, 3-Cyclopropyl-1-[4-[4-[1-[1-(difluoromethyl)-3,5-dimethylpyrazol-4-yl]sulfonylcyclopropyl]-6-[(3S)-3-methylmorpholin-4-yl]pyrimidin-2-yl]phenyl]urea]: the IC50 is 29 nM.

On to `CNC(=O)Nc1ccc(-c2nc(N3CCOC[C@@H]3C)cc(C3(S(=O)(=O)c4c(C)nn(C(F)F)c4C)CC3)n2)cc1` [Example 75a, 1-[4-[4-[1-[1-(difluoromethyl)-3,5-dimethylpyrazol-4-yl]sulfonylcyclopropyl]-6-[(3S)-3-methylmorpholin-4-yl]pyrimidin-2-yl]phenyl]-3-methylurea], for which the IC50 was 43.5 nM.

With `CCNC(=O)Nc1ccc(-c2nc(N3CCOC[C@@H]3C)cc(C3(S(=O)(=O)c4c(C)nn(C(F)F)c4C)CC3)n2)cc1` [Example 75b, 3-[4-[4-[1-[1-(difluoromethyl)-3,5-dimethylpyrazol-4-yl]sulfonylcyclopropyl]-6-[(3S)-3-methylmorpholin-4-yl]pyrimidin-2-yl]phenyl]-1-ethylurea], the IC50 worked out at 38.1 nM.

In the case of `Cc1nn(C(F)F)c(C)c1S(=O)(=O)C1(c2cc(N3CCOC[C@@H]3C)nc(-c3ccc(NC(=O)NCCO)cc3)n2)CC1` [Example 75c, 1-[4-[4-[1-[1-(difluoromethyl)-3,5-dimethylpyrazol-4-yl]sulfonylcyclopropyl]-6-[(3S)-3-methylmorpholin-4-yl]pyrimidin-2-yl]phenyl]-3-(2-hydroxyethyl)urea], the IC50 amounted to 33.9 nM.

For `Cc1nn(C(F)F)c(C)c1S(=O)(=O)C1(c2cc(N3CCOC[C@@H]3C)nc(-c3ccc(NC(=O)NCC(F)F)cc3)n2)CC1` [Example 75d, 3-(2,2-difluoroethyl)-1-[4-[4-[1-[1-(difluoromethyl)-3,5-dimethylpyrazol-4-yl]sulfonylcyclopropyl]-6-[(3S)-3-methylmorpholin-4-yl]pyrimidin-2-yl]phenyl]urea], the IC50 worked out at 39.9 nM.

Turning to `Cc1nn(C(F)F)c(C)c1S(=O)(=O)C1(c2cc(N3CCOC[C@@H]3C)nc(-c3ccc(NC(=O)NCCF)cc3)n2)CC1` [Example 75e, 1-[4-[4-[1-[1-(difluoromethyl)-3,5-dimethylpyrazol-4-yl]sulfonylcyclopropyl]-6-[(3S)-3-methylmorpholin-4-yl]pyrimidin-2-yl]phenyl]-3-(2-fluoroethyl)urea], the IC50 is 37 nM.

As to `Cc1nn(C(F)F)c(C)c1S(=O)(=O)C1(c2cc(N3CCOC[C@@H]3C)nc(-c3ccc(NC(=O)Nc4cnn(C)c4)cc3)n2)CC1` [Example 75f, 1-[4-[4-[1-[1-(difluoromethyl)-3,5-dimethylpyrazol-4-yl]sulfonylcyclopropyl]-6-[(3S)-3-methylmorpholin-4-yl]pyrimidin-2-yl]phenyl]-3-(1-methylpyrazol-4-yl)urea], the IC50 was found to be 60.8 nM.

On to `C[C@H]1COCCN1c1cc(C2(S(=O)(=O)c3ccccc3Cl)CC2)nc(-c2ccc(NC(=O)NC3CC3)cc2)n1` [Example 76, 1-[4-[4-[1-(2-Chlorophenyl)sulfonylcyclopropyl]-6-[(3S)-3-methylmorpholin-4-yl]pyrimidin-2-yl]phenyl]-3-cyclopropylurea], for which the IC50 amounted to 6.87 nM.

`CNC(=O)Nc1ccc(-c2nc(N3CCOC[C@@H]3C)cc(C3(S(=O)(=O)c4ccccc4Cl)CC3)n2)cc1` [Example 76a, 1-[4-[4-[1-(2-chlorophenyl)sulfonylcyclopropyl]-6-[(3S)-3-methylmorpholin-4-yl]pyrimidin-2-yl]phenyl]-3-methylurea]: the IC50 worked out at 4.07 nM.

`CCNC(=O)Nc1ccc(-c2nc(N3CCOC[C@@H]3C)cc(C3(S(=O)(=O)c4ccccc4Cl)CC3)n2)cc1` [Example 76b, 3-[4-[4-[1-(2-chlorophenyl)sulfonylcyclopropyl]-6-[(3S)-3-methylmorpholin-4-yl]pyrimidin-2-yl]phenyl]-1-ethylurea]: the IC50 stood at 7.19 nM.

With `C[C@H]1COCCN1c1cc(C2(S(=O)(=O)c3ccccc3Cl)CC2)nc(-c2ccc(NC(=O)NCCO)cc2)n1` [Example 76c, 1-[4-[4-[1-(2-chlorophenyl)sulfonylcyclopropyl]-6-[(3S)-3-methylmorpholin-4-yl]pyrimidin-2-yl]phenyl]-3-(2-hydroxyethyl)urea], the IC50 came to 3.19 nM.

As for `C[C@H]1COCCN1c1cc(C2(S(=O)(=O)c3ccccc3Cl)CC2)nc(-c2ccc(NC(=O)NCC(F)F)cc2)n1` [Example 76d, 1-[4-[4-[1-(2-chlorophenyl)sulfonylcyclopropyl]-6-[(3S)-3-methylmorpholin-4-yl]pyrimidin-2-yl]phenyl]-3-(2,2-difluoroethyl)urea], the IC50 stood at 9.24 nM.

On to `C[C@H]1COCCN1c1cc(C2(S(=O)(=O)c3ccccc3Cl)CC2)nc(-c2ccc(NC(=O)NCCF)cc2)n1` [Example 76e, 1-[4-[4-[1-(2-chlorophenyl)sulfonylcyclopropyl]-6-[(3S)-3-methylmorpholin-4-yl]pyrimidin-2-yl]phenyl]-3-(2-fluoroethyl)urea], for which the IC50 worked out at 5.66 nM.

As to `C[C@H]1COCCN1c1cc(C2(S(=O)(=O)c3ccccc3Cl)CC2)nc(-c2ccc(NC(=O)Nc3cnn(C)c3)cc2)n1` [Example 76f, 1-[4-[4-[1-(2-chlorophenyl)sulfonylcyclopropyl]-6-[(3S)-3-methylmorpholin-4-yl]pyrimidin-2-yl]phenyl]-3-(1-methylpyrazol-4-yl)urea], the IC50 came to 6.78 nM.

As to `C[C@H]1COCCN1c1cc(C2(S(=O)(=O)c3ccc(C#N)cc3)CC2)nc(-c2ccc(NC(=O)NC3CC3)cc2)n1` [Example 77, 1-[4-[4-[1-(4-Cyanophenyl)sulfonylcyclopropyl]-6-[(3S)-3-methylmorpholin-4-yl]pyrimidin-2-yl]phenyl]-3-cyclopropylurea], the IC50 turned out to be 8.21 nM.

On to `CNC(=O)Nc1ccc(-c2nc(N3CCOC[C@@H]3C)cc(C3(S(=O)(=O)c4ccc(C#N)cc4)CC3)n2)cc1` [Example 77a, 1-[4-[4-[1-(4-cyanophenyl)sulfonylcyclopropyl]-6-[(3S)-3-methylmorpholin-4-yl]pyrimidin-2-yl]phenyl]-3-methylurea], for which the IC50 was determined as 5.24 nM.

On to `CCNC(=O)Nc1ccc(-c2nc(N3CCOC[C@@H]3C)cc(C3(S(=O)(=O)c4ccc(C#N)cc4)CC3)n2)cc1` [Example 77b, 3-[4-[4-[1-(4-cyanophenyl)sulfonylcyclopropyl]-6-[(3S)-3-methylmorpholin-4-yl]pyrimidin-2-yl]phenyl]-1-ethylurea], for which the 50% inhibitory concentration (IC50) is 8.6 nM.

Regarding `C[C@H]1COCCN1c1cc(C2(S(=O)(=O)c3ccc(C#N)cc3)CC2)nc(-c2ccc(NC(=O)NCCO)cc2)n1` [Example 77c, 1-[4-[4-[1-(4-cyanophenyl)sulfonylcyclopropyl]-6-[(3S)-3-methylmorpholin-4-yl]pyrimidin-2-yl]phenyl]-3-(2-hydroxyethyl)urea], the IC50 was determined as 4.37 nM.

Take `C[C@H]1COCCN1c1cc(C2(S(=O)(=O)c3ccc(C#N)cc3)CC2)nc(-c2ccc(NC(=O)NCC(F)F)cc2)n1` [Example 77d, 1-[4-[4-[1-(4-cyanophenyl)sulfonylcyclopropyl]-6-[(3S)-3-methylmorpholin-4-yl]pyrimidin-2-yl]phenyl]-3-(2,2-difluoroethyl)urea]: the half-maximal inhibitory concentration (IC50) was found to be 10.1 nM.

With `C[C@H]1COCCN1c1cc(C2(S(=O)(=O)c3ccc(C#N)cc3)CC2)nc(-c2ccc(NC(=O)NCCF)cc2)n1` [Example 77e, 1-[4-[4-[1-(4-cyanophenyl)sulfonylcyclopropyl]-6-[(3S)-3-methylmorpholin-4-yl]pyrimidin-2-yl]phenyl]-3-(2-fluoroethyl)urea], the IC50 worked out at 5.17 nM.

For the compound `C[C@H]1COCCN1c1cc(C2(S(=O)(=O)c3ccc(C#N)cc3)CC2)nc(-c2ccc(NC(=O)Nc3cnn(C)c3)cc2)n1` [Example 77f, 1-[4-[4-[1-(4-cyanophenyl)sulfonylcyclopropyl]-6-[(3S)-3-methylmorpholin-4-yl]pyrimidin-2-yl]phenyl]-3-(1-methylpyrazol-4-yl)urea], the IC50 was determined as 9.19 nM.

With `Cc1nc(C)c(S(=O)(=O)C2(c3cc(N4CCOC[C@@H]4C)nc(-c4ccc(NC(=O)NC5CC5)cc4)n3)CC2)s1` [Example 78, 3-Cyclopropyl-1-[4-[4-[1-[(2,4-dimethyl-1,3-thiazol-5-yl)sulfonyl]cyclopropyl]-6-[(3S)-3-methylmorpholin-4-yl]pyrimidin-2-yl]phenyl]urea], the IC50 is 41.8 nM.

As for `CNC(=O)Nc1ccc(-c2nc(N3CCOC[C@@H]3C)cc(C3(S(=O)(=O)c4sc(C)nc4C)CC3)n2)cc1` [Example 78a, 1-[4-[4-[1-[(2,4-dimethyl-1,3-thiazol-5-yl)sulfonyl]cyclopropyl]-6-[(3S)-3-methylmorpholin-4-yl]pyrimidin-2-yl]phenyl]-3-methylurea], the IC50 came out at 15.3 nM.

As for `CCNC(=O)Nc1ccc(-c2nc(N3CCOC[C@@H]3C)cc(C3(S(=O)(=O)c4sc(C)nc4C)CC3)n2)cc1` [Example 78b, 3-[4-[4-[1-[(2,4-dimethyl-1,3-thiazol-5-yl)sulfonyl]cyclopropyl]-6-[(3S)-3-methylmorpholin-4-yl]pyrimidin-2-yl]phenyl]-1-ethylurea], the IC50 turned out to be 33.3 nM.

Turning to `Cc1nc(C)c(S(=O)(=O)C2(c3cc(N4CCOC[C@@H]4C)nc(-c4ccc(NC(=O)NCCO)cc4)n3)CC2)s1` [Example 78c, 1-[4-[4-[1-[(2,4-dimethyl-1,3-thiazol-5-yl)sulfonyl]cyclopropyl]-6-[(3S)-3-methylmorpholin-4-yl]pyrimidin-2-yl]phenyl]-3-(2-hydroxyethyl)urea], the IC50 came out at 20.9 nM.

Regarding `Cc1nc(C)c(S(=O)(=O)C2(c3cc(N4CCOC[C@@H]4C)nc(-c4ccc(NC(=O)NCC(F)F)cc4)n3)CC2)s1` [Example 78d, 3-(2,2-difluoroethyl)-1-[4-[4-[1-[(2,4-dimethyl-1,3-thiazol-5-yl)sulfonyl]cyclopropyl]-6-[(3S)-3-methylmorpholin-4-yl]pyrimidin-2-yl]phenyl]urea], the IC50 amounted to 17.5 nM.
